From US10426388B2, “Prediction of tumor recurrence by measuring oxygen saturation” (THE GENERAL HOSPITAL CORPORATION, priority 2014, dated 2019)
“And” between values parts separate entries of the source, which are not always exact repeats. Equal entries are not always repeated. “Also recorded” adds a separate entry of the source.

Assays:
[1] = Photobleaching of BPD in phantom tubes by photoacoustic imaging (fluorescence before/after PAI); format: physicochemical; conditions: fluorescence at 690 nm
Experimental: The FDA approved photosensitizer Benzoporphryin derivative (BPD-MA) (Aveline et al., Photochemistry and Photobiology, 59(3):328-35 (1994)) with absorption peaks at […] was used for all PDT experiments. To achieve better depth of light penetration, 690 nm light was used for PDT. PAI was performed at 750 nm and 850 nm wavelength illumination to deduce StO2 from the oxygenated and deoxygenated hemoglobin signal as described by Needles et al. Needles et al., IEEE Trans Ultrason Ferroelectr Freq Control. 60(5):888-97 (2013). At these wavelengths, the absorbance of BPD is minimal (FIG. 5A). PAI was performed using pulsed nanosecond laser (10 nsec pulse width) illumination. […] Fluorescence imaging on the tubes were performed using a Maestro imaging system (CRI Inc.) with an excitation at 405 nm and emission at 690 nm.
Fluorescence imaging: Fluorescence images of two phantom tube (500 um inner diameter) containing phosphate buffered saline (PBS) and liposomal BPD were acquired using a CRi Maestro system. […] Fluorescence images at 690 nm were acquired. A custom Matlab routine was used to quantify fluorescence signals in the tubes. […] Fluorescence image of the tubes were acquired and the tubes were again irradiated with laser of the Vevo LAZR system operating at 690 nm (10 ns pulse width at 10 Hz, 44.5 mJ/cm^2 fluence). […]

subcutaneous U87 tumors [2] = assay: Longitudinal volume monitoring of subcutaneous U87 tumors after BPD-PDT; format: in vivo, mice
Text: Chen et al., Int J Radiat Oncol Biol Phys., 61(4):1216-26 (2005); Chen et al., Crit Rev Eukaryot Gene Expr., 16(4):279-305 (2006). It was postulated in previous work that at 1-hr the PS localizes to both cellular and vascular compartments of the tumor while at 3-hrs, most of the PS is extra vascular and primarily cellular therefore less likely to impact the tumor oxygenation status. Iinuma et al., Cancer Research, 59(24):6164-70 (1999). […] Amongst the mice that underwent PDT with 1-hr DLI, there was no regrowth for ˜two weeks and at that point 35% of the mice started to show recurrence and an increase in tumor volume (FIG. 6, dashed line), while 65% mice had no palpable tumor 30 days post therapy (FIG. 6, solid line). To test if PAI could monitor the changes in StO2 in the tumor due to PDT, The inventors designated the 1-hr DLI group with a sustained absence of palpable tumors up to 30 days post treatment (FIG. 6, triangles joined by solid line) as the “PDT responding group” and the mice in the 3-hr DLI group (FIG. 6, squares joined by solid line) were considered the “PDT non-responding group”.
(§1) Animal Model: All animal experiments were approved by the Subcommittee on Research Animal Care of Massachusetts General Hospital. Female athymic Swiss nude mice (Cox, Cambridge, Mass.), 8-10 weeks old, were anesthetized with isoflurane USP (Baxter, Deerfield, Ill.) and inoculated subcutaneously with 3×10^6 U87 cells in 300 μL, of Matrigel (BD Bioscience, San Jose, Calif.). Tumor volumes were measured using calipers by two researchers separately. Tumor volume was calculated using the formula; π/6×Length×Width×Height and photographs of the tumors were obtained.
(§2) PDT Treatment: Mice were injected intravenously with 0.5 mg/kg of BPD-MA, then PDT was performed as follows. Mice were placed under the laser light source and covered with black cloth except tumor area. 1 or 3-hrs post injection, mice were irradiated with 100 J/cm^2 using a 690 nm laser diode source (Model 7401; Intense, North Brunswick, N.J.) at a fluence rate of 100 mW/cm^2 as measured via a VEGA laser power energy meter (Ophir Laser Measurement Group, LLC).

subcutaneous U87 tumors [3] = assay: Photoacoustic imaging of tumor StO2 and HbT before and after BPD-PDT; format: in vivo, mice
Experimental: StO2 and HbT content were measured in both the 1-hr DLI responding group and 3-hr DLI (nonresponders) group of mice (n=6 per group) at 4 time points (before PDT (Pre-PDT), immediately post-PDT, 6-hrs and 24-hrs post-PDT) to determine if PAI could predict treatment response. FIG. 7A and FIG. 7B show representative images of the change in StO2 and HbT content at various time points in a responding and non-responding tumor respectively. Ultrasound imaging identified region of interest (green ROI in FIGS. 7A and 7B is the tumor region). FIG. 7C and FIG. 7D represent the average of StO2 values and HbT values in the tumor ROI from ˜350 B-scans per mouse (6 mice in each group, ˜55-75 B-scans per 3D tumor volume). […] This phenomena is in agreement with the studies by Wang et al. and is attributed to cell death and a decrease in the metabolic consumption of oxygen in the tumor area. Wang et al., Cancer Research, 64(20):7553-61 (2004).
as §1, §2
Ultrasound and Photoacoustic Imaging: Image acquisition and quantitation was performed using the ultrasound and photoacoustic imaging system (Vevo LAZR, FUJIFILM VisualSonics, Inc.). Light generated from a tunable laser operating at either 750 nm or 850 nm was delivered through fiber optic bundles integrated into a linear array transducer (LZ-250, 21 MHz). The Oxy-Hemo feature of the Vevo LAZR software was used to acquire the oxygen-saturation images. Mice were imaged under isoflurane. Physiological status (ECG, respiration, and body temperature) of the mice was closely monitored during image acquisition sessions. 3D ultrasound and photoacoustic images were acquired at a step size of 0.152 mm. The Vevo LAZR workstation software was utilized to mark the tumor region of interest and obtain the StO2 and HbT values for every B-scan. The workstation allowed export of the raw data. The raw data is processed using customized MATLAB routines and integrated with 3D visualization software AMIRA to obtain the prediction maps.

subcutaneous U87 tumors [4] = assay: Validation of tumor hypoxia with pimonidazole/CD31 immunofluorescence after BPD-PDT; format: in vivo, mice; conditions: 1-hr DLI (responding group) compared with 3-hr DLI (non-responding) group
Text: The inventors next validated the hypoxic conditions observed in photoacoustic images with pimonidazole stain for hypoxia. Gerling et al., Theranostics, 4(6):604-13 (2014). Tumors were sectioned in a similar orientation as the imaging cross-section. CD31 stain was utilized to depict the tumor vasculature while pimonidazole stained the hypoxic regions. In the 1-hr DLI group (FIGS. 8A-4D), Immunofluorescence (IF) images show hypoxia adjacent to the vasculature depicted by the CD31 stain. The hypoxia is due to the vascular damage caused by PDT and disruption of the blood flow in these vessels. Zoomed images of the H&E stain of the adjacent cross section show vascular congestions. […] It is also to be noted that the fluorescence of the pimonidazole stain is stronger in the 1-hr DLI (responding group) tumor than in the 3-hr DLI (non-responding) group given the severe hypoxic conditions created by PDT.
Immunohistochemistry: An overview of the immunofluorescence staining protocol used in this study is published previously by the inventors. […] The slides were washed in PBS and secondary antibody (Donkey Anti-Goat IgG NL493 Affinity Purified PAb (R&D systems Inc) was applied for 2-hrs at room temperature. Finally the slides were washed and sealed with coverslip. A whole slide scanning fluorescence imaging system (Hamamatsu NanoZoomer 2.0-RS) at 40× magnification was used to image the slides.

tumor = assay: Tumor hypoxia/oxygenation after irinotecan detected by photoacoustic imaging; format: in vivo
[5] = responding 1-hr DLI group, 6-hrs post-PDT
[6] = responding 1-hr DLI group, 24-hrs post-PDT

benzoporphyrin derivative monoacid ring-A [BPD]
BPD fluorescence after PAI (photobleaching) ([1]; PAI at 690 nm): significant decrease in the fluorescence; also recorded: reduced fluorescence | BPD fluorescence signal after PAI compared to pre-imaging value ([1]; PAI at 750 nm followed by 850 nm pulsed laser irradiation): no significant difference; also recorded: no significant change | mice showing recurrence (local tumor recurrence) (subcutaneous U87 tumors [2]; 1-hr DLI PDT): ~35% | time without regrowth (subcutaneous U87 tumors [2]; 1-hr DLI PDT): two weeks | mice with no palpable tumor (subcutaneous U87 tumors [2]; 1-hr DLI PDT, 30 days post therapy): 65% | increase in tumor volume (subcutaneous U87 tumors [2]; 3-hr DLI group, three weeks following PDT, 0.5 mg/kg BPD, 100 J/cm^2): approximately six-fold | tumor volume difference versus no-treatment group (subcutaneous U87 tumors [2]; 3-hr DLI group, p>0.05, Students t-test): no significant difference | HbT value versus pre-PDT value (subcutaneous U87 tumors [3]; 1-hr DLI group, 6-hrs post-PDT): significantly higher | StO2 immediately post-PDT versus pre-PDT (subcutaneous U87 tumors [3]; 1-hr DLI group, p<0.001): increase in oxygenation | HbT signal at 6-hrs and 24-hrs post-PDT (subcutaneous U87 tumors [3]; 3-hr DLI group): no statistical difference | StO2 24-hrs post-PDT versus pre-PDT (subcutaneous U87 tumors [3]; 3-hr DLI group): No statistically significant difference | StO2 immediately post-PDT versus pre-PDT (subcutaneous U87 tumors [3]; 3-hr DLI group): no statistically significant difference | change in StO2 compared to pre-PDT StO2 value (subcutaneous U87 tumors [3]; 3-hr DLI group, 6-hrs post-PDT): ~18% | StO2 (subcutaneous U87 tumors [3]; non-responding 3-hr DLI group, 6-hrs post-PDT): 47.6%±13.4% | StO2 (subcutaneous U87 tumors [3]; non-responding 3-hr DLI group, 24-hrs post-PDT): 55.3%±11.6% | StO2 (subcutaneous U87 tumors [3]; [5]): 2.97±1.6% and 2.9%±1.6% | decrease in StO2 relative to Pre-PDT value (subcutaneous U87 tumors [3]; [5]): ~95% and ~94.3% | StO2 (subcutaneous U87 tumors [3]; [6]): 8.03%±4.13% | decrease in StO2 relative to pre-PDT value (subcutaneous U87 tumors [3]; [6]): ~85% and ~84.8% | fluorescence of the pimonidazole stain (hypoxia), 1-hr DLI tumor versus 3-hr DLI tumor (subcutaneous U87 tumors [4]): stronger

CCc1c2c(nc3ccc(OC(=O)N4CCC(N5CCCCC5)CC4)cc13)-c1cc3c(c(=O)n1C2)COC(=O)[C@]3(O)CC [irinotecan]
tumor oxygenation (tumor; after irinotecan treatment, photoacoustic imaging): increases tumor oxygenation | levels of hypoxia (tumor; from 1 to 24 hours after treatment): steadily increasingly decrease
